Patent US8906897B2, “Antimicrobial agents based on hemin derivatives” (Obschestvo S Ogranichennoi Otvetstvennostiyu …, priority 2009, dated 2014)
Values after ≈ are worked out from the molar mass of the structure shown.

Assays:
Format in all cases: cell-based
[1] = system: Enterococcus faecalis No. 559; assay: Specific activity against resistant bacterial strains
Procedure: (§1) The tested agents were water-soluble hemin derivatives (compounds VII and XVIII) or DMSO-soluble derivatives (compounds VIII, XV, and XIV). Vancomycin was the reference compound. Each compound was tested in three replicas.
(§2) Sterile single-use flat-bottomed 96-well plates, Petri dishes, pipettes, tips, and test tubes (Pan-Eco, Moscow) were used in the study.
(§3) The nutritional media used were as follows. A working Mueller Hinton broth was prepared from dry media (Mueller Hinton broth, Acumedia, Baltimore) and sterilized by autoclaving at 121° C. for 15 min.
(§4) Staphylococcus aureus was cultured on the Tripticase Soy Agar (BBL) commercially available dry medium. Enterococcus faecalis was cultured on the Columbia Agar Base (BBL) commercially available dry medium. These media were sterilized by autoclaving at 121° C. for 15 min.
(§5) Bacterial inoculum was fixed and equal to 5×10^5 CFU/mL.
(§6) For water-soluble compounds, wells from 2nd through 8th were added with the solvent (water) in an amount of 15 μL per well, then the 1st well was added with 30 μL of the stock solution of the tested compound in water with a concentration of 1×10^3M, and the concentration was adjusted to 0.007×10^3 M by serial twofold dilutions. A 10-μL portion was taken from every well, and 190 μL of the bacterial culture (10^5 CFU) was added per well.
(§7) For DMSO-soluble compounds, wells from 2nd through 8th were added with the solvent (DMSO) in an amount of 10 μL per well, then the 1st well was added with 20 μL of the stock solution of the tested compound in […] with a concentration of 5×10^3M, and the concentration was adjusted to 0.039×10^3 M by serial twofold dilutions. A 2-μL portion was taken from each well, and 198 μL of the bacterial culture (10^5 CFU) was added per well.
(§8) The control comprised wells free of tested compounds (culture growth control). In addition, purity control of nutritional media and solvents was used. Plates were incubated in a thermostat at 36° C. for 24 hours.
(§9) Culture growth was evaluated visually by comparison of how microorganisms grew in the presence of tested compounds and in the absence of them. MSC (the minimal suppressing concentration) was set equal to the last dilution of a tested agent which suppressed bacterial culture growth.

[2] = system: Staphylococcus aureus No. 100 KC; assay: as above
Procedure: as §1, §2, §3, §4, §5, §6, §7, §8, §9

[3] = system: Staphylococcus aureus No. 25923 ATCC; assay: as above
Procedure: as §1, §2, §3, §4, §5, §6, §7, §8, §9

[4] = system: Staphylococcus epidermidis No. 533; assay: as above; conditions: St. epiderm 533; 24 h, 36° C.
Procedure: as §1, §2, §3, §4, §5, §6, §7, §8, §9

[5] = system: Enterococcus faecium No. 569; assay: as above; conditions: Ent. faecium 569; 24 h, 36° C.
[6] = system: Bacillus subtilis BKM B-501; assay: Antibacterial activity (MIC/MBC), serial dilutions in liquid MH medium
Procedure: (§10) The antibacterial activity of compounds was determined against Bacillus subtilis BKM B-501, Staphylococcus aureus 209P, Enterococcus faecalis BKM B-871, and Micrococcus luteus BKM Ac-2230 strains (acquired from the All-Russia Collection of Microorganisms at the Institute for Biochemistry and Physiology of Microorganisms, Russian Academy of Sciences). The main parameters characterizing the antibacterial activity are the minimal inhibitory concentration (MIC) and minimal bactericidal concentration (MBC). […] MBC is the least concentration that causes the death of all cells.
(§11) MIC was quantified by inhibiting culture growth in a liquid medium with serial dilutions of compounds using a modified procedure [Amsterdam, D., “Susceptibility Testing of Antimicrobials in Liquid Media,” in Antibiotics in Laboratory Medicine, Ed. by Lorian, V., 4th ed., Baltimore: Williams and Wilkins, 1996, pp. 52-111].
(§12) Bacteria were cultured and tests were carried out on an MH liquid medium (Mueller-Hinton medium: a dry extract of beef broth, 4 g/L; starch, 1.5 g/L; casein hydrolyzate, 17.5 g/L; Sigma-Fluka Catalog No. 70192) at 37° C., 100% humidity, and under stirring. Cultures (4th through 7th receeding post-thawing) in the exponential growth phase were used for tests.
(§13) Therefore, a correction for absorption was applied in estimating the optical density of bacterial suspensions for each compound with account for its concentration in the well.
(§14) The protocol for experimental antibacterial activity determination for tested compounds was as follows. A cryovial with the test strain culture (Bacillus subtilis BKIVI B-501, Staphylococcus aureus 209P, Enterococcus faecalis BKM B-871, or Micrococcus luteus BKIVI Ac-2230) in a medium with 7% DMSO stored in liquid nitrogen, was rapidly defrosted, and 1.5 mL of the fresh MH medium was inoculated with 100 μL of the cell suspension. Cells were grown for one day at 37° C. and stirred on an orbital shaker at 150 rpm. The morphologic features of the strain and the absence of contamination with foreign bacteria were verified by: (a) inoculation on an agarized (15 g/L agar) MH medium and observation of the shape and color of the grown colonies and (b) examination of characteristic morphologic features under a microscope (Mikmed-2, LOMO, Russia) equipped with a 40× objective lens. Further bacteria were cultured in 1 mL of the liquid MH medium at 37° C. under stirring. The cells were reseeded every day. Cell cultures were used in tests starting with 3rd reseeding and ending with 6th one.
(§15) For testing, 5 μL of a bacterial suspension in the stationary growth phase was transferred to 1 mL of a sterile MH medium and incubated until the exponential growth phase was attained (3 to 5 h, 37° C., stirring at 150 rpm). To estimate the microorganisms concentration, the optical density (A) of the resulting bacterial culture was measured at a wavelength of 595 nm. The value of A=0.2 measured from a […] portion of the cell suspension in a 96-well plate, with a correction for the medium absorption applied, was set to correspond to 4×10^8 cells/mL for both strains used. Taking into account the cell concentration measurements, the suspension was diluted with the MH medium to a concentration of from 5×10^4 to 1×10^5 cells/mL and transferred to a sterile 96-well plate in an amount of 100 μL, per well. Then, the cells were added with tested compounds and twofold serial dilutions of these compounds in plate's wells were made.
(§16) The controls used were: 100 μL of an additive-free bacterial culture (four wells); a bacterial culture added with 1% DMSO or water in the same volume as in the wells with the maximal concentration of the tested compounds (four wells); and 100 μL of the sterile MH medium without bacteria and without tested compounds for control of occasional contamination in the plate (four wells).

[7] = system: Enterococcus faecalis BKM B-871; assay: as above
Procedure: as §10, §11, §12, §13, §14, §15, §16

[8] = system: Micrococcus luteus BKM Ac-2230; assay: as above
Procedure: as §10, §11, §12, §13, §14, §15, §16

[9] = system: Staphylococcus aureus 209P; assay: as above
Procedure: as §10, §11, §12, §13, §14, §15, §16

[10] = system: Candida albicans No. 927; assay: Antifungal activity, culture growth with pH indicator; design: key to Test culture growth at various dilutions of the agent: (−) No growth; the indicator is blue; (±) Weak growth; the indicator is yellow, but the precipitate of grown cells looks as a diffuse spot; (+) Strong growth; the indicator is yellow, and the cell precipitate looks as a compact spot
Procedure: The subjects of action were Cryptococcus neoformans No. 3465 museum strain cells and Candida albicans No. 927 museum strain cells grown for one day on a glucose-peptone-yeast medium at 32° C. The reference compounds were the following antimycotics: pimafucin, amphotericin, and fluconazole.
Experiments were carried out on round-bottomed 96-well plates (Lenmedpolimer) in two replicas. To the first column (0), added was 10 μL of the stock solution of a water-soluble agent with concentrations of 10^−2 to 10^−3 mol/L; to the second column, added was also the same 10 μL plus 10 μL of the solvent corresponding to the given compound, suspended, 10 μL was transferred to the next well, and so on to the 8th well of the row. Stock solutions of water-insoluble compounds of general formula (I) (compounds V, VIII, XII, XIII, XIV, and hemin) were prepared in DMSO and were diluted with DMSO and the medium. DMSO concentrations in the reaction mixture in a well were ≦5%.
Then, to every well added was 190 μL of a Cr. neoformans cell culture suspension in a synthetic nutritional medium (so that the final cell concentration was approximately 10^3 CFU/mL), this medium containing Bromocresol Blue as a pH-indicator (pH: 5.5; indicator color: blue). As pH reduced to 4.5, the indicator in the culture changed its color to yellow, thereby indicating fungal cell growth. The synthetic medium comprised the following components: salts, amino acids, microelements, vitamins, an antibiotic, and glucose (30 components altogether) [Yarrow, D., “Methods for the Isolation, Maintenance and Identification of Yeasts,” in: The Yeasts. A Taxonomic Study, Ed. by Kurtsman, C. P, and Fell, M., Elsevier, 1998, pp. 77-100]. After being inoculated with a Cr. neoformans cell suspension, the plate was incubated at 32° C. for 1 h with stirring, then transferred to a stationary thermostat and incubated for two and five days at 27° C. After being inoculated with a C. albicans cell suspension, the plates were incubated for 1 h at 32° C. with stirring, then transferred to a stationary thermostat and incubated for one and four days at 27° C.

[11] = system: Cryptococcus humicolus; assay: Antifungal activity against cryptococcosis causative agent (MSC)

Compound: C=CC1=C(C)c2cc3[n-]c(cc4nc(cc5[n-]c(cc1n2)c(C)c5CCC(=O)N[C@@H](CCCNC(=N)N)C(=O)N[C@@H](CCCNC(=N)N)C(=O)OC)C(CCC(=O)N[C@@H](CCCNC(=N)N)C(=O)N[C@@H](CCCNC(=N)N)C(=O)OC)=C4C)c(C)c3C=C.[Cl-].[Fe+3] [Compound XXI, 6,7-bis[(N^α-L-Arginyl Methyl Ester)-L-Arginyl]-Protohemin IX]
- MICs for hemin derivatives against Gr+ strains ([1]; Ent. faecalis 559, 24 h, 36° C.): 50 µM
- MICs for hemin derivatives against Gr+ strains ([2]; St. aureus 100 KC, 24 h, 36° C.): 50 µM
- MICs for hemin derivatives against Gr+ strains ([3]; St. aureus 25923, 24 h, 36° C.): 50 µM
- MICs for hemin derivatives against Gr+ strains [4]: 50 µM
- MICs for hemin derivatives against Gr+ strains [5]: >50 µM

Compound: CN[C@H](CC(C)C)C(=O)N[C@H]1C(=O)N[C@@H](CC(N)=O)C(=O)N[C@H]2C(=O)N[C@H]3C(=O)N[C@H](C(=O)N[C@H](C(=O)O)c4cc(O)cc(O)c4-c4cc3ccc4O)[C@H](O)c3ccc(c(Cl)c3)Oc3cc2cc(c3O[C@@H]2O[C@H](CO)[C@@H](O)[C@H](O)[C@H]2O[C@H]2C[C@](C)(N)[C@H](O)[C@H](C)O2)Oc2ccc(cc2Cl)[C@H]1O [Vancomycin, reference compound]
- MIC ([1]; Enterococcus faecalis, NO.559, read-out: MICs for Vancomycin): 1 µg/mL (≈ 0.69 µM)
- MIC ([2]; Staphylococcus aureus, NO.100KC, read-out: MICs for Vancomycin): 1 µg/mL (≈ 0.69 µM)
- MIC ([3]; Staphylococcus aureus, NO.25923ATCC, read-out: MICs for Vancomycin): 1 µg/mL (≈ 0.69 µM)

Compound: Protohemin IX 6(7)-Mono(-Val-Gly-Ala-D-Leu-Ala-D-Val-Val-D-Val-Trp-D-Leu-X-D-Leu-Trp-D-Leu-Trp-NH—CH2CH2OH)amide [Compound XII]
- MBC [6]: 38 ± 13 µM
- MIC ([6]; 20 h, MH medium): 38 ± 13 µM
- MBC [7]: >50^3 μM
- MIC ([7]; 20 h, MH medium): 50 µM
- MBC [8]: >6.3^3 μM
- MIC ([8]; 20 h, MH medium): 1.6 µM
- MBC [9]: >50^2 μM
- MIC ([9]; 20 h, MH medium): 50 µM
- Test culture growth at various dilutions of the agent ([10]; dilution 0: 1 × 10^−4 M): ±
- Test culture growth at various dilutions of the agent ([10]; dilution : 2 of 1 × 10^−4 M): ±
- Test culture growth at various dilutions of the agent ([10]; dilution : 4 of 1 × 10^−4 M): ±
- Test culture growth at various dilutions of the agent ([10]; dilution : 8 of 1 × 10^−4 M): +
- Test culture growth at various dilutions of the agent ([10]; dilution : 16 of 1 × 10^−4 M): +
- Test culture growth at various dilutions of the agent ([10]; dilution : 32 of 1 × 10^−4 M): +
- Test culture growth at various dilutions of the agent ([10]; dilution : 64 of 1 × 10^−4 M): +
- MSC [11]: 12.5 µM
